Results taken from the NIST ThermoML archive (doi:10.1016/j.tca.2006.04.022).
± gives the expanded uncertainty stated by the source.

Test: molar heat capacity at constant pressure
Settings: 101.33 kPa, Vacuum adiabatic calorimetry

CCOS(=O)(=O)[O-].CCn1cc[n+](C)c1 [1-ethyl-3-methylimidazolium ethyl sulfate]
Settings	molar heat capacity at constant pressure [J/K/mol]
79.23 K, Glass	127.8 ± 8.9
79.7 K, Glass	128.6 ± 9
80.51 K, Glass	129.4 ± 9.1
81.67 K, Glass	130.9 ± 9.2
82.84 K, Glass	131.5 ± 9.2
83.99 K, Glass	133.2 ± 9.3
85.31 K, Glass	135.2 ± 9.5
86.78 K, Glass	136.3 ± 9.5
88.25 K, Glass	137.9 ± 9.7
89.7 K, Glass	138.8 ± 9.7
91.13 K, Glass	141.2 ± 9.9
92.56 K, Glass	142.2 ± 10
93.97 K, Glass	143.4 ± 10
95.39 K, Glass	145.2 ± 10
96.79 K, Glass	146.4 ± 10
98.17 K, Glass	147.5 ± 10
99.54 K, Glass	149.6 ± 10
100.91 K, Glass	151 ± 11
102.27 K, Glass	151.6 ± 11
103.61 K, Glass	152.9 ± 11
104.96 K, Glass	154.3 ± 11
106.29 K, Glass	155.3 ± 11
107.62 K, Glass	155.8 ± 11
108.95 K, Glass	157.3 ± 11
110.26 K, Glass	158.3 ± 11
111.57 K, Glass	159.1 ± 11
112.87 K, Glass	160.6 ± 11
114.17 K, Glass	162.4 ± 11
115.46 K, Glass	163.1 ± 11
116.74 K, Glass	163.6 ± 12
118.02 K, Glass	165.2 ± 12
119.29 K, Glass	166.8 ± 12
120.55 K, Glass	167.9 ± 12
121.82 K, Glass	168.9 ± 12
123.06 K, Glass	170.1 ± 12
124.32 K, Glass	170.7 ± 12
125.55 K, Glass	172.1 ± 12
126.8 K, Glass	173.9 ± 12
128.22 K, Glass	174.7 ± 12
129.84 K, Glass	176.7 ± 12
131.45 K, Glass	178.2 ± 12
133.04 K, Glass	178.9 ± 12
134.63 K, Glass	180 ± 13
136.21 K, Glass	181.3 ± 13
137.77 K, Glass	183.2 ± 13
139.34 K, Glass	184.6 ± 13
140.89 K, Glass	185.1 ± 13
142.73 K, Glass	187.4 ± 13
144.86 K, Glass	189.6 ± 13
146.97 K, Glass	191.6 ± 13
149.07 K, Glass	194.6 ± 14
151.16 K, Glass	196.7 ± 14
153.21 K, Glass	198.7 ± 14
155.27 K, Glass	200.9 ± 14
157.3 K, Glass	202.8 ± 14
159.33 K, Glass	203.6 ± 14
161.34 K, Glass	205.9 ± 14
163.34 K, Glass	208.6 ± 15
165.33 K, Glass	210.2 ± 15
167.3 K, Glass	212.6 ± 15
169.27 K, Glass	214.9 ± 15
171.23 K, Glass	216.9 ± 15
173.18 K, Glass	218.1 ± 15
175.11 K, Glass	220.4 ± 15
177.05 K, Glass	223.2 ± 16
178.98 K, Glass	226 ± 16
180.91 K, Glass	229.3 ± 16
182.83 K, Glass	231.6 ± 16
184.74 K, Glass	234.3 ± 16
186.65 K, Glass	238 ± 17
188.56 K, Glass	243.9 ± 17
190.42 K, Glass	251.8 ± 18
192.11 K, Glass	273.4 ± 19
193.57 K, Glass	313.7 ± 22
194.94 K, Glass	340.7 ± 24
196.36 K, Liquid	346.8 ± 24
197.81 K, Liquid	347.7 ± 24
199.27 K, Liquid	348.4 ± 24
200.76 K, Liquid	349.4 ± 24
202.25 K, Liquid	349.9 ± 24
203.79 K, Liquid	350.5 ± 24
205.33 K, Liquid	350.9 ± 25
206.9 K, Liquid	351.5 ± 25
208.47 K, Liquid	351.9 ± 25
210.06 K, Liquid	352.4 ± 25
211.66 K, Liquid	352.8 ± 25
213.18 K, Liquid	353.2 ± 25
214.52 K, Liquid	353.7 ± 25
215.86 K, Liquid	354.1 ± 25
217.18 K, Liquid	354.5 ± 25
218.5 K, Liquid	354.9 ± 25
219.81 K, Liquid	355.4 ± 25
221.12 K, Liquid	355.7 ± 25
222.41 K, Liquid	356.1 ± 25
223.71 K, Liquid	356.5 ± 25
225 K, Liquid	356.8 ± 25
226.27 K, Liquid	357.1 ± 25
227.54 K, Liquid	357.5 ± 25
228.79 K, Liquid	357.8 ± 25
230.03 K, Liquid	358.1 ± 25
231.26 K, Liquid	358.4 ± 25
232.46 K, Liquid	359 ± 25
233.66 K, Liquid	359.3 ± 25
234.84 K, Liquid	359.6 ± 25
236.02 K, Liquid	359.8 ± 25
237.19 K, Liquid	360.2 ± 25
238.37 K, Liquid	360.5 ± 25
239.54 K, Liquid	361 ± 25
240.7 K, Liquid	361.3 ± 25
241.86 K, Liquid	361.5 ± 25
243.01 K, Liquid	361.9 ± 25
244.15 K, Liquid	362.2 ± 25
245.29 K, Liquid	362.5 ± 25
246.43 K, Liquid	363.1 ± 25
247.58 K, Liquid	363.5 ± 25
248.73 K, Liquid	363.9 ± 26
249.88 K, Liquid	364.2 ± 26
251.02 K, Liquid	364.5 ± 26
252.17 K, Liquid	364.8 ± 26
253.31 K, Liquid	365.5 ± 26
254.45 K, Liquid	365.8 ± 26
255.6 K, Liquid	366.1 ± 26
256.73 K, Liquid	366.3 ± 26
257.87 K, Liquid	366.8 ± 26
259 K, Liquid	367.1 ± 26
260.13 K, Liquid	367.4 ± 26
261.27 K, Liquid	367.6 ± 26
262.4 K, Liquid	367.8 ± 26
263.53 K, Liquid	368 ± 26
264.66 K, Liquid	368.3 ± 26
265.8 K, Liquid	368.7 ± 26
266.93 K, Liquid	369.1 ± 26
268.06 K, Liquid	369.4 ± 26
269.19 K, Liquid	369.5 ± 26
270.33 K, Liquid	369.9 ± 26
271.45 K, Liquid	370.3 ± 26
272.58 K, Liquid	370.8 ± 26
273.71 K, Liquid	371 ± 26
274.83 K, Liquid	371.2 ± 26
275.94 K, Liquid	371.5 ± 26
277.06 K, Liquid	371.8 ± 26
278.18 K, Liquid	372 ± 26
279.28 K, Liquid	372.4 ± 26
280.39 K, Liquid	373 ± 26
281.5 K, Liquid	373.1 ± 26
282.62 K, Liquid	373.5 ± 26
283.72 K, Liquid	373.8 ± 26
284.83 K, Liquid	374.2 ± 26
285.95 K, Liquid	374.5 ± 26
287.05 K, Liquid	374.7 ± 26
288.15 K, Liquid	375 ± 26
289.26 K, Liquid	375.4 ± 26
290.37 K, Liquid	375.6 ± 26
291.47 K, Liquid	376 ± 26
292.58 K, Liquid	376.1 ± 26
293.69 K, Liquid	376.5 ± 26
294.79 K, Liquid	376.8 ± 26
295.9 K, Liquid	377 ± 26
297 K, Liquid	377.4 ± 26
298.11 K, Liquid	378 ± 26
299.22 K, Liquid	378.2 ± 26
300.32 K, Liquid	378.6 ± 26
301.43 K, Liquid	378.9 ± 26
302.54 K, Liquid	379.1 ± 26
303.64 K, Liquid	379.3 ± 27
304.74 K, Liquid	379.6 ± 27
305.86 K, Liquid	379.9 ± 27
306.96 K, Liquid	380.1 ± 27
308.07 K, Liquid	380.3 ± 27
309.18 K, Liquid	380.4 ± 27
310.29 K, Liquid	380.8 ± 27
311.4 K, Liquid	380.9 ± 27
312.52 K, Liquid	381.2 ± 27
313.63 K, Liquid	381.6 ± 27
314.75 K, Liquid	381.8 ± 27
315.85 K, Liquid	382 ± 27
316.97 K, Liquid	382.3 ± 27
318.08 K, Liquid	382.7 ± 27
319.19 K, Liquid	383 ± 27
320.31 K, Liquid	383.1 ± 27
321.42 K, Liquid	383.4 ± 27
322.53 K, Liquid	383.6 ± 27
323.66 K, Liquid	383.9 ± 27
324.75 K, Liquid	383.9 ± 27
325.84 K, Liquid	384.4 ± 27
326.92 K, Liquid	384.6 ± 27
327.99 K, Liquid	384.8 ± 27
329.08 K, Liquid	384.9 ± 27
330.17 K, Liquid	385.1 ± 27
331.26 K, Liquid	385.6 ± 27
332.35 K, Liquid	385.9 ± 27
333.43 K, Liquid	386.1 ± 27
334.52 K, Liquid	386.5 ± 27
335.6 K, Liquid	386.6 ± 27
336.68 K, Liquid	386.9 ± 27
337.77 K, Liquid	387.3 ± 27
338.86 K, Liquid	387.4 ± 27
339.94 K, Liquid	387.8 ± 27
341.04 K, Liquid	388.1 ± 27
342.13 K, Liquid	388.3 ± 27
343.22 K, Liquid	388.6 ± 27
344.31 K, Liquid	388.9 ± 27
345.4 K, Liquid	389.2 ± 27
346.49 K, Liquid	389.5 ± 27
347.58 K, Liquid	389.7 ± 27
348.65 K, Liquid	390 ± 27
349.73 K, Liquid	390.2 ± 27
350.82 K, Liquid	390.5 ± 27
351.91 K, Liquid	390.8 ± 27
353.01 K, Liquid	391.3 ± 27
354.11 K, Liquid	391.6 ± 27
355.22 K, Liquid	392 ± 27
356.31 K, Liquid	392.3 ± 28
357.42 K, Liquid	392.5 ± 28
358.53 K, Liquid	392.7 ± 28
359.63 K, Liquid	392.8 ± 28
360.75 K, Liquid	392.9 ± 28
361.87 K, Liquid	393.1 ± 28
363 K, Liquid	393.4 ± 28
364.13 K, Liquid	393.5 ± 28
365.29 K, Liquid	393.6 ± 28
366.38 K, Liquid	393.9 ± 28
367.47 K, Liquid	394.1 ± 28
368.52 K, Liquid	394.5 ± 28
369.63 K, Liquid	394.7 ± 28
370.76 K, Liquid	394.9 ± 28
371.78 K, Liquid	395.1 ± 28
372.82 K, Liquid	395.3 ± 28
373.9 K, Liquid	395.6 ± 28
374.98 K, Liquid	395.8 ± 28
376.02 K, Liquid	396.2 ± 28
377.08 K, Liquid	396.5 ± 28
378.13 K, Liquid	396.8 ± 28
379.52 K, Liquid	397.1 ± 28
380.42 K, Liquid	397.3 ± 28
381.38 K, Liquid	397.5 ± 28
382.35 K, Liquid	397.8 ± 28
383.43 K, Liquid	398 ± 28
384.34 K, Liquid	398.2 ± 28
385.25 K, Liquid	398.5 ± 28
386.14 K, Liquid	398.8 ± 28
387.09 K, Liquid	399.1 ± 28
388.01 K, Liquid	399.5 ± 28
388.98 K, Liquid	399.7 ± 28
389.95 K, Liquid	399.9 ± 28
